# What was measured:
# Experiment in all cases: Bacterial growth minimal inhibitory concentration (broth microdilution, CLSI M7-A7)
# Format in all cases: cell-based
# [1] = tested on: Moraxella catarrhalis A894; conditions: quinolone-sensitive strain; for MIC: Moraxella catarrhalis, A894, cation-adjusted Mueller-Hinton Broth
# Procedure, shortened: (§1)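 Read-out is the minimal inhibitory concentration in mg/L, obtained by microdilution in cation-adjusted Mueller-Hinton broth following CLSI M7-A7. Quinolone resistance is present in A798 and T6474, which are multiply resistant, but absent in A894 and in methicillin-sensitive ATCC29213.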
# [2] = tested on: Staphylococcus aureus A798; conditions: multiply-resistant strain (in particular quinolone-resistant); for MIC: Staphylococcus aureus, A798, cation-adjusted Mueller-Hinton Broth, read-out: MIC for S. aureus A798
# Procedure, shortened: as §1
# [3] = tested on: Acinetobacter baumannii T6474; conditions: multiply-resistant strain (in particular quinolone-resistant); for MIC: Acinetobacter baumannii, T6474, cation-adjusted Mueller-Hinton Broth
# Procedure, shortened: as §1
# [4] = tested on: Staphylococcus aureus ATCC29213; conditions: methicillin-sensitive and quinolone-sensitive strain; for MIC: Staphylococcus aureus, ATCC29213, cation-adjusted Mueller-Hinton Broth, read-out: MIC for S. aureus ATCC29213
# Procedure, shortened: as §1
# [5] = tested on: Enterococcus faecium A949; conditions: multiply-resistant strain (in particular quinolone-resistant); for MIC: Enterococcus faecium, A949, cation-adjusted Mueller-Hinton Broth, read-out: MIC for E. faecium A949
# Procedure, shortened: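 Broth microdilution after CLSI M7-A7 in cation-adjusted Mueller-Hinton medium gave MIC values in mg/L.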
# [6] = cation-adjusted Mueller-Hinton Broth
structure (smiles),measurement,setting,value
"N#Cc1cccc(-c2cccc(CNCC[C@H]3CN(c4ccc5c(n4)NC(=O)CO5)C(=O)O3)c2O)n1 [Example 92, 6-[2-hydroxy-3-({2-[(S)-2-oxo-3-(3-oxo-3,4-dihydro-2H-pyrido[3,2-b][1,4]oxazin-6-yl)-oxazolidin-5-yl]-ethylamino}-methyl)-phenyl]-pyridine-2-carbonitrile]",MIC,[1],≤ 0.016 µg/mL
same,MIC,[2],≤ 0.016 µg/mL
same,MIC,[3],0.063 µg/mL
same,MIC,[4],0.031 µg/mL
same,MIC,[5],0.5 µg/mL
"COc1cccc(-c2cccc(CNCC[C@H]3CN(c4ccc5c(n4)NC(=O)CO5)C(=O)O3)c2O)n1 [Example 93, 6-((S)-5-{2-[2-hydroxy-3-(6-methoxy-pyridin-2-yl)-benzylamino]-ethyl}-2-oxo-oxazolidin-3-yl)-4H-pyrido[3,2-b][1,4]oxazin-3-one]",MIC,[1],≤ 0.016 µg/mL
same,MIC,[2],≤ 0.016 µg/mL
same,MIC,[3],0.063 µg/mL
same,MIC,[4],≤ 0.016 µg/mL
same,MIC,[5],0.25 µg/mL
"N#Cc1cccc(-c2cccc(CNCC[C@H]3CN(c4ccc5c(n4)NC(=O)CS5)C(=O)O3)c2O)n1 [Example 94, 6-[2-hydroxy-3-({2-[(S)-2-oxo-3-(3-oxo-3,4-dihydro-2H-pyrido[3,2-b][1,4]thiazin-6-yl)-oxazolidin-5-yl]-ethylamino}-methyl)-phenyl]-pyridine-2-carbonitrile]",MIC,[1],≤ 0.016 µg/mL
same,MIC,[2],≤ 0.016 µg/mL
same,MIC,[3],0.031 µg/mL
same,MIC,[4],≤ 0.016 µg/mL
same,MIC,[5],0.125 µg/mL
"COc1cccc(-c2cccc(CNCC[C@H]3CN(c4ccc5c(n4)NC(=O)CS5)C(=O)O3)c2O)n1 [Example 95, 6-((S)-5-{2-[2-hydroxy-3-(6-methoxy-pyridin-2-yl)-benzylamino]-ethy}-2-oxo-oxazolidin-3-yl)-4H-pyrido[3,2-b][1,4]thiazin-3-one]",MIC for M. catarrhalis A894,[1]; [6],≦0.016 mg/L
same,MIC for S. aureus A798,[2]; [6],≦0.016 mg/L
same,MIC for A. baumannii T6474,[3]; [6],0.063 µg/mL
same,MIC for S. aureus ATCC29213,[4]; [6],≦0.016 mg/L
same,MIC for E. faecium A949,[5]; [6],0.125 µg/mL
"N#Cc1cccc(-c2cccc(CNCCc3cn(-c4ccc5c(n4)NC(=O)CO5)c(=O)o3)c2O)n1 [Example 96, 6-[2-hydroxy-3-({2-[2-oxo-3-(3-oxo-3,4-dihydro-2H-pyrido[3,2-b][1,4]oxazin-6-yl)-2,3-dihydro-oxazol-5-yl]-ethylamino}-methyl)-phenyl]-pyridine-2-carbonitrile]",MIC,[1],≤ 0.016 µg/mL
same,MIC,[2],0.031 µg/mL
same,MIC,[3],0.125 µg/mL
same,MIC,[4],0.031 µg/mL
same,MIC,[5],1 µg/mL
"COc1cnnc(-c2cccc(CNCC[C@@H]3CN(c4ccc5c(n4)NC(=O)CO5)C(=O)O3)c2)c1 [Example 97, 6-((R)-5-{2-[3-(5-methoxy-pyridazin-3-yl)-benzylamino]-ethyl}-2-oxo-oxazolidin-3-yl)-4H-pyrido[3,2-b][1,4]oxazin-3-one]",MIC,[1],0.031 µg/mL
same,MIC,[2],0.25 µg/mL
same,MIC,[3],0.25 µg/mL
same,MIC,[4],0.25 µg/mL
same,MIC,[5],8 µg/mL
"COc1cnnc(-c2cccc(CNCC[C@@H]3CN(c4ccc5c(n4)NC(=O)CS5)C(=O)O3)c2)c1 [Example 98, 6-((R)-5-{2-[3-(5-methoxy-pyridazin-3-yl)-benzylamino]-ethyl}-2-oxo-oxazolidin-3-yl)-4H-pyrido[3,2-b][1,4]thiazin-3-one]",MIC,[1],0.031 µg/mL
same,MIC,[2],0.125 µg/mL
same,MIC,[3],0.25 µg/mL
same,MIC,[4],0.25 µg/mL
same,MIC,[5],4 µg/mL
"COc1cnnc(-c2cccc(CNCC[C@H]3CN(c4ccc5c(n4)NC(=O)CS5)C(=O)O3)c2)c1 [Example 99, 6-((S)-5-{2-[3-(5-methoxy-pyridazin-3-yl)-benzylamino]-ethyl}-2-oxo-oxazolidin-3-yl)-4H-pyrido[3,2-b][1,4]thiazin-3-one]",MIC,[1],≤ 0.016 µg/mL
same,MIC,[2],0.031 µg/mL
same,MIC,[3],0.125 µg/mL
same,MIC,[4],0.031 µg/mL
same,MIC,[5],2 µg/mL
"N#Cc1cccc(-c2cccc(CNCC[C@H]3CN(c4ccc5c(n4)NC(=O)CS5)C(=O)O3)c2)c1 [Example 100, 3′-({2-[(S)-2-oxo-3-(3-oxo-3,4-dihydro-2H-pyrido[3,2-b][1,4]thiazin-6-yl)-oxazolidin-5-yl]-ethylamino}-methyl)-biphenyl-3-carbonitrile]",MIC,[1],≤ 0.016 µg/mL
same,MIC,[2],≤ 0.016 µg/mL
same,MIC,[3],0.125 µg/mL
same,MIC,[4],≤ 0.016 µg/mL
same,MIC,[5],0.5 µg/mL
